“Also recorded” adds a separate entry of the source.
Test system: porcine kidneys
Experiment: Nitrotyrosine staining of porcine kidneys during cold preservation
Set-up: dose or concentration left out as unconfirmed
Protocol: FIG. 14 depicts micrographs and plots showing increased nitrotyrosine protein expression detected during cold preservation. (A) Representative images showing MitoQ (100 mM) mediated reduction of nitrotyrosine staining. (B) Expression level of total (combined cortex and medulla) nitrotyrosine was evaluated and scored. (C) Expression level of cortical and medulla nitrotyrosine was evaluated and scored. Error bar indicates Mean SEM (n=4). *P<0.05 compared to untreated kidneys at 24 and 48 hr within the cortex.
Nitrotyrosine staining and nitrotyrosine expression levels were used to determine protective effect of MitoQ on porcine kidneys during SC.

[1] = porcine kidneys during cold preservation

SMILES: COC1=C(OC)C(=O)C(CCCCCCCCCC[P+](c2ccccc2)(c2ccccc2)c2ccccc2)=C(C)C1=O [MitoQ, mitoquinone]
- nitrotyrosine expression levels, combined cortex and medulla [1]: reduced
- nitrotyrosine staining [1]: significantly decreased; also recorded: reduction
- nitrotyrosine expression levels in the cortex (porcine kidneys, 24 and 48 hr): significantly lower

Reference: patent US9258995B2, “Organ cold storage composition and methods of use” (BOARD OF TRUSTEES OF THE UNIVERSITY OF ARKANSAS, priority 2009, dated 2016)
